What was measured:
[1] = system: Human lens epithelial cells (HLEpiC); experiment: Inhibitory action on actin stress fiber formation (phalloidin staining, confocal microscopy); assay type: cell-based; conditions: treated about an hour
Experimental: Human lens epithelial cells (HLEpiC (ScienCell Research Laboratories)) were diluted with a medium (Epithelial Cell Medium (ScienCell Research Laboratories)), dispensed to each well of Poly-L-lysine (ScienCell Research Laboratories) coated Imaging Chamber CG at 100 μL/well (about 5000 cells/cm^2), and cultured in a carbon dioxide incubator (37° C., 5% CO2) until about 50% confluent. The medium was removed with vacuum suction and a test substance, a positive control, a comparative control, or the medium (control) at each concentration given below was added to each well at 300 μL/well:
Test substance: Ripasudil with a concentration of 10 μM, 100 μM or 1 mM,
Positive control: Cytochalasin D with a concentration of 2 μM,
These were treated in a carbon dioxide incubator (37° C., 5% CO2) for about an hour, and then washed once with the medium. 4% Paraformaldehyde Phosphate Buffer Solution (Wako Pure Chemical Industries, Ltd.) (hereinafter, referred to as a fixative solution) was added at 300 μL/well, and fixation was carried out at room temperature for 2 minutes. After washing with the medium, 0.5% Triton X-100 (Roche Diagnostics K.K.) was added at 300 μL/well, and penetrated at room temperature for 2 minutes. After washing with the medium, the fixative solution was added at 300 μL/well, and fixation was carried out at room temperature for 20 minutes.
Separately, 25 μL of 14 μM Actin-Stain™ 555 phalloidin (Cytoskeleton, Inc.) (hereinafter, referred to as Phalloidin) was added to 3475 μL of 10 mM phosphate buffered saline (Wako Pure Chemical Industries, Ltd.) to produce 100 nM Phalloidin.
This 100 nM Phalloidin was added to each well washed with the medium at 200 μL/well, and staining was carried out at room temperature in a dark place for about 60 minutes.
After washing with the medium, the chamber was removed, and […] Mounting Medium with DAPI (Vector Laboratories, Inc.) was dropped onto a cover glass with a few drops. A slide glass was placed thereon and this was left to stand at room temperature in a dark place for 30 minutes or more, and adhesion and nuclear staining were carried out and then observed by a confocal laser scanning microscope.

HLEpiC [2] = experiment: Determination of G-actin/F-actin ratio using G-Actin/F-Actin In Vivo Assay Kit; assay type: cell-based, human; conditions: about an hour, control 1.16
Experimental: HLEpiC was diluted with a medium (Epithelial Cell Medium), and dispensed to a Poly-L-lysine coated T-75 flask at about 5000 cells/cm^2, and cultured in a carbon dioxide incubator (37° C., 5% CO2) until about 50% confluent. A test substance, a positive control or the medium (control) at each concentration given below was added to each flask at 20 mL.
(§1) Test substance: Ripasudil with a concentration of […], 100 μM or 1 mM,
Positive control: CD with a concentration of 2 μM, and
These were treated in a carbon dioxide incubator (37° C., 5% CO2) for about an hour.
To 20 mL of Lysis and F-actin stabilization buffer was added 200 μL of 100 mM ATP stock solution and 200 μL of 100× Protease inhibitor cocktail stock to produce LAS2 buffer, and this was incubated in a carbon dioxide incubator (37° C.) for about 30 minutes. Warmed LAS2 buffer was added at 2.5 mL to each flask in which the medium was removed with vacuum suction.
Next, adherent HLEpiC was completely scraped with a cell scraper and transferred with the LAS2 buffer to a conical tube, and HLEpiC was crushed with a micropipette (hereinafter, referred to as cell solution). This cell solution was incubated in a carbon dioxide incubator (37° C.) for about 10 minutes and then centrifuged for 10 minutes (2000 rpm, room temperature). The supernatant was dispensed into an ultracentrifugal tube at 1.8 mL and centrifuged for an hour with an ultracentrifuge (100,000× g, 37° C.). At this time, F-actin is precipitated and G-actin remains in the supernatant.
The supernatant was transferred to a conical tube while being careful not to suck F-actin precipitates.
To precipitates of each sample was added 1.8 mL of F-actin depolymerizing buffer, and this was incubated under ice-cold conditions for an hour to depolymerize actin.
From each supernatant sample and precipitate sample, 100 μL each was put in a 1.5 mL Eppendorf tube, and 25 μL of 5×SDS sample buffer was added and stirred.
Each sample was boiled in a boiling water bath for 5 minutes.
Each sample was subjected to SDS-polyacrylamide gel electrophoresis, followed by Western blotting.
Next, after treatment using a Western blotting detection reagent (ECL Select Western Blotting Detection Reagent, GE Healthcare Japan), proteins were detected using a Lumino image analyzer. The quantities of G-actin and F-actin were determined using an analysis software (ImageQuant TL, GE Healthcare Japan) and the G-actin/F-actin ratio was calculated.
The variation in the quantity of F-actin required to form actin stress fibers was evaluated by comparison with the G-actin/F-actin ratio of untreated (Control) cells.

HLEpiC [3] = experiment: Inhibitory action on cell migration (Oris Cell Migration plate); assay type: cell-based, human; conditions: about 24 and 48 hours after treatment
Experimental: HLEpiC was diluted with a medium (Epithelial Cell Medium) and dispensed to Poly-L-lysine coated Oris™ Cell Migration 96 well plate, to which a stopper was firmly attached, at 50 μL/well (25000 cells/well) and cultured in a carbon dioxide incubator (37° C., 5% CO2) for 24 hours. The stopper was removed, and after brief washing with the medium, a solution obtained by adding 5 μL of 10 mM Cell Tracker Green Fluorescent Probe (Lonza Walkersville, Inc.) to 4995 μL of the medium was added at 100 μL/well, and the cells were stained in a carbon dioxide incubator (37° C., 5% CO2) for about 30 minutes. After brief washing with the medium, the medium was further added and the cells were cultured in a carbon dioxide incubator (37° C., 5% CO2) for about 30 minutes.
After brief washing with the medium, a test substance, a positive control, a comparative control or the medium (control) at each concentration given below was added at 100 μL/well.
as §1
Positive control: CD with a concentration of 2 μM,
These were cultured in a carbon dioxide incubator (37° C., 5% CO2). The state of HLEpiC in the Detection Zone in each sample was observed by a confocal laser scanning microscope about 24 hours after the treatment and 48 hours after the treatment.

Normal human fibroblasts = experiment: Cytostatic action, BrdU uptake (Cell Proliferation ELISA); assay type: cell-based; conditions: dermal fibroblast proliferation, 2 days
Experimental: Normal human fibroblasts (Sanko Junyaku Co., Ltd.) were seeded at 2000 cells/well and cultured overnight. Next day, the medium (FGM-2 (Sanko Junyaku Co., Ltd.)) was exchanged (150 μL), and 10 μL of Ripasudil was then added so that the final concentration was 0.1 μM, 1 μM and 10 μM. After culturing for 2 days, 10 μL of BrdU (58.8-fold diluted solution: an undiluted solution is a 1000-fold solution) was added, and the cells were cultured for 2 hours. OD540-620 was measured using a plate reader after fixation and antibody addition, washing and coloring, and reaction termination in accordance with the protocol of Cell Proliferation ELISA BrdU kit (Roche), and an action on proliferation was evaluated. A value in a sample in which Ripasudil is not added is considered as 100%, and the uptake rate of BrdU under each condition is shown in Table 2.

C[C@H]1CNCCCN1S(=O)(=O)c1cccc2cncc(F)c12 [Ripasudil, 4-fluoro-5-{[(2S)-2-methyl-1,4-diazepan-1-yl]sulfonyl}isoquinoline]
actin stress fibers (observation) ([1]; 10 μM): slightly disappear
actin stress fibers (observation) ([1]; 100 μM): significantly disappear
actin stress fibers (observation) ([1]; 1 mM): significantly disappear
G-actin/F-actin ratio (HLEpiC [2]; 10 μM): 1.91
G-actin/F-actin ratio (HLEpiC [2]; 100 μM): 4.55
G-actin/F-actin ratio (HLEpiC [2]; 1 mM): 24.87
cell migration into Detection Zone (observation) (HLEpiC [3]; 100 μM): tendency of inhibition of cell migration
cell migration into Detection Zone (observation) (HLEpiC [3]; 1 mM): definite inhibitory action on cell migration
Uptake rate of BrdU (% of control) (Normal human fibroblasts; Ripasudil 0.1 μM): 80.0 % of control
Uptake rate of BrdU (% of control) (Normal human fibroblasts; Ripasudil 1.0 μM): 59.3 % of control
Uptake rate of BrdU (% of control) (Normal human fibroblasts; Ripasudil 10.0 μM): 10.9 % of control

— US9844556B2, “Preventive/therapeutic method and preventive/therapeutic agent for complications after cataract surgery” (KOWA COMPANY, LTD., priority 2015, dated 2017)
